Structures can show the parent of a compound that is named as a salt.
Assays:
[1] = test system: Monosodium Iodoacetate-Induced Osteoarthritis in Rat Model of Joint Cartilage Damage; assay: Monosodium iodoacetate-induced osteoarthritis in rat (MIA Rat), loss of hind limb joint function; assay type: in vivo; conditions: male Wistar rats, MIA 1 mg/joint, 10 mg/kg/day subcutaneously via osmotic pump
Text: Monosodium Iodoacetate-Induced Osteoarthritis in Rat Model of Joint Cartilage Damage (“MIA Rat”):
One end result of the induction of osteoarthritis in this model, as determined by histologic analysis, is the development of an osteoarthritic condition within the affected joint, as characterized by the loss of Toluidine blue staining and formation of osteophytes. Associated with the histologic changes is a concentration-dependent degradation of joint cartilage, as evidenced by affects on hind-paw weight distribution of the limb containing the affected joint, the presence of increased amounts of proteoglycan or hydroxyproline in the joint upon biochemical analysis, or histopathological analysis of the osteoarthritic lesions.
The invention compounds typically are not effective for relieving joint pain when administered in an acute model, such as the instant MIA Rat model, which has a duration of just 14 or 28 days.
Generally, In the MIA Rat model on Day 0, the hind-paw weight differential between the right arthritic joint and the left healthy joint of male Wistar rats (150 g) are determined with an incapacitance tester, model 2KG (Linton Instrumentation, Norfolk, United Kingdom). The incapacitance tester has a chamber on top with an outwardly sloping front wall that supports a rat's front limbs, and two weight sensing pads, one for each hind paw, that facilitates this determination. Then the rats are anesthetized with isofluorine, and the right, hind leg knee joint is injected with 1.0 mg of mono-iodoacetate (“MIA”) through the infrapatellar ligament. Injection of MIA into the joint results in the inhibition of glycolysis and eventual death of surrounding chondrocytes. The rats are further administered either an invention compound or vehicle (in the instant case, water) daily for 14 days or 28 days.
The invention compound is typically administered at a dose of 30 mg of per kilogram of rat per day (30 mg/kg/day), but may be administered at other doses such as, for example, 10 mg/kg/day, 60 mg/kg/day, 90-mg/kg/day, or 100 mg/kg/day according to the requirements of the invention compound being studied. It is well within the level of ordinary skill in the pharmaceutical arts to determine a proper dosage of an invention compound in this model.
Administration of an invention compound in this model is optionally by oral administration or by intravenous administration via an osmotic pump. After 7 and 14 days for a two week study, or 7, 14, and 28 days for a four week study, the hind-paw weight distribution is again determined. Typically, the animals administered vehicle alone place greater weight on their unaffected left hind paw than on their right hind paw, while animals administered an invention compound show a more normal (i.e., more like a healthy animal) weight distribution between their hind paws. This change in weight distribution was proportional to the degree of joint cartilage damage. Percent inhibition of a change in hind paw joint function is calculated as the percent change in hind-paw weight distribution for treated animals versus control animals. For example, for a two week study, [formula] wherein: ΔWC is the hind-paw weight differential between the healthy left limb and the arthritic limb of the control animal administered vehicle alone, as measured on Day 14; and • ΔWG is the hind-paw weight differential between the healthy left limb and the arthritic limb of the animal administered an invention compound as measured on Day 14.
Administration via osmotic pump is preferable for screening compounds. In a particular experiment, monosodium iodoacetate (“MIA”) (1 mg/joint) was injected through the infrapatellar ligament of the right knee of anesthetized male, Wistar rats. The contralateral control knee was injected with 50 μL of physiologic saline. […]

[2] = target: alpha-2-delta receptor 2 (UniProt A0A8W4FF87); assay: [3H]Gabapentin A2DR2 binding assay; parameters: species or system pig; conditions: Biological Method 4; read-out: A2DR2 IC50, displacement of [3H]-gabapentin
Text: (§1) [^3H]Gabapentin A2DR1 and A2DR2 Binding Assays (“A2DR1” and “A2DR2”, Respectively)
(§2) HEK 293 recombinant cells expressing A2DR1 or A2DR2 protein are harvested and washed in phosphate buffered saline (“PBS”). The cells are centrifuged and resuspended in tris(hydroxymethyl)aminomethane-ethylenediaminetetraacetic acid (“Tris-EDTA” or “TE”) buffer containing Roche Complete Protease Inhibitor Cocktail. The cells are homogenized, centrifuged at 3000×g, and the supernatant centrifuged again at 50,000×g. The resulting pellet is resuspended and homogenized in TE. Following determination of A2DR1 or A2DR2 protein concentration, aliquots are stored at −70° C. until the day of testing (membrane preparation may be used for at least 6 months).
(§3) In one version, the binding assay is set up in a 96-well format using deep-well polypropylene plates. […] Non-specific binding for each plate is determined by the addition of 10 μM of pregabalin instead of test compound in a few of the 96 wells. […] The mats are placed into plastic pouches, scintillation cocktail is added, the pouches are sealed, and radioactivity for each sample is counted.
Specific binding values for each concentration are transformed and then analyzed by a 4-parameter nonlinear regression equation provided by Prism graphics software by Graph Pad to determine IC50 values by conventional means. […]

[3] = target: alpha-2-delta receptor 1 (Sus scrofa, UniProt A0A287BIN3); assay: [3H]Gabapentin A2DR1 binding assay; parameters: species or system pig; conditions: Biological Method 4; read-out: A2DR1 IC50, displacement of [3H]-gabapentin
Text: as §1, §2, §3
(§4) Specific binding values for each concentration are transformed and then analyzed by a 4-parameter nonlinear regression equation provided by Prism graphics software by Graph Pad to determine IC50 values by conventional means.
Displacement of [3H]-gabapentin from an alpha-2-delta receptor-1 or an alpha-2-delta receptor-2 by certain invention compounds is evidenced below in Table 2. In Table 2, the displacement was determined according to one of the above Biological Methods 4 or 6, and reported as an IC50 in micromolar concentration of invention compound in the columns labeled “A2DR1 IC50 (μM),” “A2DR2 IC50 […],” and “GABAPAA IC50 (μM),” respectively, for a reference compound, racemic octahydroisoindole-2-carboxylic acid (“OHIII2CA”) and certain invention compounds, which are referenced by Compound Example number in the column labeled “Compound Example No.”.

[4] = target: alpha-2-delta receptors, membrane from pig cortex (Sus scrofa, UniProt O77773); assay: [3H]Gabapentin A2DR binding assay (GABAPAA / GABAP); conditions: Biological Method 6, pig cortex membrane; read-out: GABAPAA IC50, displacement of [3H]-gabapentin
Chain of alpha-2-delta receptors, membrane from pig cortex (O77773 25-1091): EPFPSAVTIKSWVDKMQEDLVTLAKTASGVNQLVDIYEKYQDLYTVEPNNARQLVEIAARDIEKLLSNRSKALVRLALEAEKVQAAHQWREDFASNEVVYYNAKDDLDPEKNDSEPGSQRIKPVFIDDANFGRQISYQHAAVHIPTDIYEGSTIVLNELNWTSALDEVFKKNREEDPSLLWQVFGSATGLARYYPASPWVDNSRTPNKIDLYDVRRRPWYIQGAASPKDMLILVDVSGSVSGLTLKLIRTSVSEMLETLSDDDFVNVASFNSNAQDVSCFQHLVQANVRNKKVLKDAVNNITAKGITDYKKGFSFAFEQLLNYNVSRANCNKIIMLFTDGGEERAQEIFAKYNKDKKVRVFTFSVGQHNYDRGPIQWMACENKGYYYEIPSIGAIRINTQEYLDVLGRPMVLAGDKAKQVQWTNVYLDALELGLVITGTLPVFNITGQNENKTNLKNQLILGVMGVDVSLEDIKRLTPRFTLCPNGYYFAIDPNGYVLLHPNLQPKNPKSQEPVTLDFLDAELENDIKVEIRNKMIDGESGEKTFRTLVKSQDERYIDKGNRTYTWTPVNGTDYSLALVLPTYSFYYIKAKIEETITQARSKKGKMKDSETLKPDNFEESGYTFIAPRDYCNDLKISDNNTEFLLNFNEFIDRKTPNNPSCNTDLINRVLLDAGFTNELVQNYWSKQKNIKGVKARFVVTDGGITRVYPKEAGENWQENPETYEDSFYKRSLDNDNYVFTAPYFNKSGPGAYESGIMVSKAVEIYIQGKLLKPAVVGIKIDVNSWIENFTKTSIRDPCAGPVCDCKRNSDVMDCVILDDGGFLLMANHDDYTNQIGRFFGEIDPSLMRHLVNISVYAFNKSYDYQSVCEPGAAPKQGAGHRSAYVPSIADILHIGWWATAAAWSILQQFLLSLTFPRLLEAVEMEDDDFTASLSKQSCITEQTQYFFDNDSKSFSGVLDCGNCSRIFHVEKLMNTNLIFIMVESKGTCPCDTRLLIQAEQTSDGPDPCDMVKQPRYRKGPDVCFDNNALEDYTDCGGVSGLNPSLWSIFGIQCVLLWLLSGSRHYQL
Method: In one version, the binding assay is set up in a 96-well format using deep-well polypropylene plates. In a total volume of 500 μL, the following additions are made: 250 μL buffer [10 mM N-2-hydroxyethylpiperazine-N′-2-ethanesulfonic acid (“HEPES”), pH 7.4], 25 μL [3H]gabapentin (10 nM final concentration), 200 μL thawed tissue membrane preparation from Step (1) (˜40 μg protein), and 25 μL of test compound at 7 test dilutions (for example, 0.001, 0.01, 0.03, 0.1, 0.3, 1.0, and 10 μM concentrations). Non-specific binding for each plate is determined by the addition of 10 μM of pregabalin instead of test compound in a few of the 96 wells. Following incubation for 45 minutes at 21° C., the contents of the wells are filtered under vacuum onto glass filter/B (“GF/B”) filter mats and then washed 4×1 mL with chilled 50 mM tris(hydroxymethyl)aminomethane (“Tris”) HCl, pH 6.9. The mats are placed into plastic pouches, scintillation cocktail is added, the pouches are sealed, and radioactivity for each sample is counted.
as §4
[^3H]Gabapentin A2DR Binding Assay (“GABAPAA” or “GABAP”) […]

[5] = target: leucine transport system (Cricetulus griseus, UniProt G3GRU9); assay: Leucine transport system binding assay (LTSBA), [3H]leucine uptake in CHO K1 cells; assay type: cell-based; conditions: conclusion from Table 3
Chain of leucine transport system (G3GRU9 entry or part of it): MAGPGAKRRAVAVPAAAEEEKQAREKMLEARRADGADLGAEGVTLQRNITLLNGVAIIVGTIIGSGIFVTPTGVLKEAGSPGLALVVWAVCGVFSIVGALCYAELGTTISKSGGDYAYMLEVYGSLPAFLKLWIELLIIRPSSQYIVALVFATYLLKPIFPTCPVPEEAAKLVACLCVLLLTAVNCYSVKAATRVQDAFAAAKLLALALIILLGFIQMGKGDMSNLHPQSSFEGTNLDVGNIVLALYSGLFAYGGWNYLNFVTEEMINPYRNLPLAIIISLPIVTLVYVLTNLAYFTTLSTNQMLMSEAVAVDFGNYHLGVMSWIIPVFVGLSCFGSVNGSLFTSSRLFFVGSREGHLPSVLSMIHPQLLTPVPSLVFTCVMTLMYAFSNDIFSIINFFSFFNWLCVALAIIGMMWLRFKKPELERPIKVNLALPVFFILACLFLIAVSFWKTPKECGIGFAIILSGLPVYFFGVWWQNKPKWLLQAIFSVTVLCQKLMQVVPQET
Chain of leucine transport system (A0A9J7CH39 entry or part of it, further chain): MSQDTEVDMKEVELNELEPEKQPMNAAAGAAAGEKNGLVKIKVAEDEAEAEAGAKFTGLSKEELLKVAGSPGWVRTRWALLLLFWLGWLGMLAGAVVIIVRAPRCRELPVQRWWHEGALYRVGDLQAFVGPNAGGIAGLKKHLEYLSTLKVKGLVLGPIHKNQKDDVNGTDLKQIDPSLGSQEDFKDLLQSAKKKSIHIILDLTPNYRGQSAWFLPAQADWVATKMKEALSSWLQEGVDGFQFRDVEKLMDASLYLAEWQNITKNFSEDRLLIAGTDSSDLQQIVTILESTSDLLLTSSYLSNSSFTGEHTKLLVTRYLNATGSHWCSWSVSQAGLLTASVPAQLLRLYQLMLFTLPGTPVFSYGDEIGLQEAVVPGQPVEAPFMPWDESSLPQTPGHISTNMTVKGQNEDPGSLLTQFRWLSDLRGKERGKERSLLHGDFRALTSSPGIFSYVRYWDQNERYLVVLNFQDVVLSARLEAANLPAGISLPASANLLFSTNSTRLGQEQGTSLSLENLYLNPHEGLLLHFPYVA
Method: Leucine Transport System Binding Assay (“LTSBA”) The sodium-containing buffer for transport assay was phosphate buffered saline (“PBS”) consisting of 137 mM NaCl, 2.7 mM KCl, 10.6 mM Na2HPO4, and 1.5 mM KH2PO4. The sodium-free buffer had equimolar amounts of choline chloride and choline phosphate in place of NaCl and […], respectively. This buffer is referred to as PBC. Prior to use, both PBS and PBC buffers (pH 7.4) were supplemented with 5.6 mM D-glucose, 0.49 mM MgCl2, and 0.9 mM CaCl2 (GMC). For cultured monolayer cells (in general, CHO K1 cells), the cluster tray transport assay was used as described previously (Su et al, J. Neurochem., 1995; 64:2125-2131, and references therein). […] The initial transport rates were determined by measuring uptake of tracer [3H] […] Secondary analysis of the initial velocity kinetic curves were determined by non linear regression analysis, using the equation: log V=log {[Vmax.S/(Km+S)]+P.[S]} where V, S, Vmax, and Km have their conventional meanings, and P represents the first order rate constant describing the nonsaturable uptake. An IC50 was determined as percentage inhibition of saturable leucine uptake. […] They were calculated by subtracting the corresponding substrate uptake rates in the presence of 10 mM excess unlabeled leucine from the total uptake rates. […] The efflux was calculated as percentage of the intracellular labeled substrate at zero time. […]

SMILES: COC1CC2CNC(C(=O)O)C2CC1OC (centres unmarked)
- melting point: 235 to 241 °C (dec.)

SMILES: O=C(O)C1NCC2C1CCC2(F)F (centres unmarked)
- melting point: 200 to 205 °C (dec.)

SMILES: O=C(O)[C@@H]1NC[C@@H]2[C@H]1[C@H]1CC[C@@H]2O1 (racemic)
- melting point: 188 to 190 °C

SMILES: O=C(O)[C@@]12CCCN1C[C@H]1CCCC[C@H]12 (racemic) (as salt: hydrochloride)
- melting point: 250 to 255 °C

SMILES: CC1(C)N[C@H](C(=O)O)[C@@H]2CCCC[C@H]21 (racemic) [Example B5]
- % I @ 10 mg/kg/day (%) (± SEM): inhibition of loss of hind limb joint function in MIA at Day 14 [1]: 32%
- IC50 [2]: ≥ 10 µM
- IC50 [3]: ≥ 10 µM

SMILES: O=C(O)N1CC2CCCCC2C1 (racemic) [OHII2CA, racemic octahydroisoindole-2-carboxylic acid]
- IC50 [4]: 0.03 µM

SMILES: CN1CC2CCCCC2C1(C)C(=O)O (centres unmarked) [Example B1]
- % I @ 10 mg/kg/day (%) (± SEM): inhibition of loss of hind limb joint function in MIA at Day 14 [1]: 32%

SMILES: C[C@]1(C(=O)O)NC[C@H]2CCCC[C@H]21 [Example B2]
- % I @ 10 mg/kg/day (%) (± SEM): inhibition of loss of hind limb joint function in MIA at Day 14 [1]: −5%
- IC50 [2]: ≥ 10 µM
- IC50 [3]: ≥ 10 µM

SMILES: CC12CCCCC1CNC2C(=O)O (centres unmarked) [Example B4]
- % I @ 10 mg/kg/day (%) (± SEM): inhibition of loss of hind limb joint function in MIA at Day 14 [1]: 13%

SMILES: O=C(O)[C@@]12CCCN1C[C@H]1CCCC[C@H]12 [Example M1]
- IC50 [3]: ≥ 10 µM

SMILES: CN1C[C@H]2C3CCC(CC3)[C@H]2[C@@H]1C(=O)O [Example R2]
- % I @ 10 mg/kg/day (%) (± SEM): inhibition of loss of hind limb joint function in MIA at Day 14 [1]: −20%

SMILES: O=C(O)C1NCC2C3CCC(CC3)C12 (centres unmarked) [Example R3]
- % I @ 10 mg/kg/day (%) (± SEM): inhibition of loss of hind limb joint function in MIA at Day 14 [1]: 20%

SMILES: Cl.O=C(O)N1CC2CCCCC2C1 (centres unmarked) [OHII2CA HCl, octahydroisoindole-2-carboxylic acid hydrochloride]
- binding to the leucine transport system (in words) [5]: weakly bind or do not bind

Source: patent US20050137215A1, “[C]-fused bicyclic proline derivatives and their use for treating arthritic conditions” (priority 2003, published 2005)
